From US20120258938A1, “Enzymatic Production or Chemical Synthesis and Uses for 5,7-Dienes and UVB Conversion Products Thereof” (priority 2008, published 2012)

What was measured:
[1] = tested on: neonatal epidermal melanocytes; assay: Proliferation of neonatal epidermal melanocytes; assay type: cell-based; details: 48 hours
[2] = tested on: mouse erytholeukemia cells (Mel); assay: Viable cell count, MEL cells; assay type: cell-based; details: 10^-7 M, 7 days
Protocol: K562 human chronic myeloid leukemia (erythroleukemia) and MEL mouse erytholeukemia cells were cultured in RPMI 1640 containing 10% FBS and treated with the drugs at concentrations 0.1 μM. A 0.1% ethanol (EtOH) or 2% DMSO were used as negative or positive control, respectively to estimate the vehicle effect and the ability of the cells to differentiate. Media were exchanged every 72 h and drugs added every day. Growth of cultures was estimated by counting number of viable cells (trypan blue negative cells) as described previously.

[3] = tested on: AbC1 hamster melanoma cells; assay: Soft agar colony formation, AbC1 melanoma; assay type: cell-based
Protocol: Growth and survival of prostate cancer cells (PC3) and melanoma cells SKMEL 188 and AbC1 was determined by following their ability to form colonies in soft agar. Cells growing in monolayer culture were trypsinized and resuspended (1,000 cells/well) in 0.25 ml medium containing 0.4% agarose and 5% charcoal stripped serum (HyClone).
Cell suspensions were added to 0.8% agar layer in 24 well plates. Compounds were added from ethanol stocks (100 μM) to final concentrations of 0.1 nM or 10 nM, in 100 μL media. Each condition was tested in quadruplicate. An ethanol solvent control (amount of ethanol equivalent to test) as well as a media-only control was included in the assay. […] […] Colonies were then counted under the microscope and number of units was calculated as number of colonies formed divided by the number of cells seeded×100.

CYP24 = assay: Real-time RT PCR CYP24 mRNA, normal epidermal keratinocytes; assay type: cell-based, human
Protocol: RNA was extracted as above. Reverse transcription was performed with Transcriptor First Strand cDNA Synthesis Kit (Roche, Nutley, N.J.). The primers (right: 5′-GCA GCT CGA CTG GAG TGA C-3′ (SEQ ID NO: 1) and left: 5′-CATCATGGCCATCAAAACAAT-3′(SEQ ID NO: 2)) and probe (cat. no. 04689135001) were designed with Universal Probe Library (Roche, Nutley, N.J.). Real-time PCR was performed using TaqMan PCR Master Mix at 50° C. for 2 min, 95° C. for 10 min and then 50 cycles (95° C. for 15 sec, 60° C. for 1 min). The data was collected on a Roche Light Cycler 480. The amounts of CYP24 were normalized using cyclophilin D as a housekeeping gene with comparative CT method.

MD-MBA-231 = assay: Flow cytometry cell cycle and subG1, MD-MBA-231; assay type: cell-based, human; details: MD-MBA-231, 24 h
Protocol: MD-MBA-231, MG-63, PC-3, and WM164 cells were seeded into Petri dishes and then incubated for 24 h with 20-hydroxycholecalciferol in DMEM medium containing 5% FBS. Then cells were fixed, DNA stained and samples read with flow cytometer as described (7). Data was analyzed with Cell Quest (BD Biosciences). Cell cycle phases were assessed in viable cell populations and subG1 contents were calculated within whole cell population.

Col1A1 mRNA = assay: Real time RT PCR Col1A1 mRNA, TGF-b1 stimulated skin fibroblasts; assay type: cell-based; details: human skin fibroblasts
Protocol: Additional studies using human skin fibroblasts were performed employing a type I collagen specific ELISA Chondrex, and real time RT PCR to quantitate type I collagen protein and Col1A1 mRNA expression in culture of human fibroblast stimulated by TGF-b1 in the presence and absence of 17,20S(OH)2pD3 and/or 20(OH)D3. These studies confirmed that Type I collagen protein production that was induced by TGF-b1 and that Col1A1 mRNA that was induced by TGF-b1 were suppressed by these analogues (FIGS. 44A-44B).

CYP27A1 = molecular target: T1, CYP27A1 (Homo sapiens, UniProt Q02318); assay: Metabolism by CYP27A1 (cyclodextrin or phospholipid vesicles)
T1 sequence (Q02318 34-531): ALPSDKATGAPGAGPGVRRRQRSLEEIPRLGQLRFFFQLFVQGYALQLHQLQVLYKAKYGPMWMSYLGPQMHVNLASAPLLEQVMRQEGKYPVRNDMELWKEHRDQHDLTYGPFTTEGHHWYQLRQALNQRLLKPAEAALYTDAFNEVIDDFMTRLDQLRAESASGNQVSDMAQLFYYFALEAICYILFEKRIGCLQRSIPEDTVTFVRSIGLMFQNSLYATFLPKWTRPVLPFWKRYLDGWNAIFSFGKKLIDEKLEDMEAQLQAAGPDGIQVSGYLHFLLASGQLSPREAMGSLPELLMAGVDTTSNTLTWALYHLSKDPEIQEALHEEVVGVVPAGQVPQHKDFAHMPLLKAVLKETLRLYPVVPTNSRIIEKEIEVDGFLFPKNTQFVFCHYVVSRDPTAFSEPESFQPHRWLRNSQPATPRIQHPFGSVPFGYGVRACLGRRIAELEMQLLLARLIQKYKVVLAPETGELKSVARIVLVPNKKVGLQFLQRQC
Protocol: To test enzymatic metabolism of 20S(OH)D3 and 20R(OH)D3, the substrates were incorporated into phospholipid vesicles with the ratio of substrate to phospholipid being 0.025 mol/mol phospholipid. Vesicles were incubated with 2 μM bovine CYP11A1 or 0.06 μM human CYP27B1 for up to 10 min. To test enzymatic metabolism of 20(OH)D3 in CYP24, the substrate was incorporated into phospholipids vesicles with 0.15-0.5 μM CYP24. To test enzymatic metabolism of 20(OH)D3 in CYP27A1, purified CYP27A1 was preincubated with the vesicles for 6 min at 37° C. Adrenodoxin was added last to initiate the reaction. For kinetic experiments, the incubations were typically 0.5 mL and were carried out over the initial linear period of the reaction (10 min for vitamin D3 and cholesterol and 30 min for 20(OH)D3).
Kinetic characterization of the metabolism of 20(OH)D3 by CYP27A1 was carried out with substrate dissolved in either cyclodextrin or phospholipid vesicle. Vitamin D3 and 20(OH)D3 were incubated with 0.4 μM CYP27A1 and 1 μM CYP27A1, respectively, for 10 and 30 min. The products were analyzed by reverse phase HPLC. The hyperbolic curves were fitted using the equation v/[E]=(kcat—[S])/(Km+[S]) where v is reaction velocity, [E] is the CYP27A1 concentration, and [S] the substrate concentration.

SMILES: C=C1/C(=C\C=C2/CCC[C@]3(C)[C@@H]([C@H](C)CCCC(C)(C)O)CC[C@@H]23)C[C@@H](O)C[C@@H]1O [1α,25-dihydroxycholecalciferol, (5Z,7E)-9,10-secocholesta-5,7,10(19)-triene-1α,3β,25-triol, reference compound]
- proliferation [1]: Dose dependent inhibition of the proliferation

SMILES: C=C1CC[C@H](O)C/C1=C/C=C1\CCC[C@]2(C)[C@@H](C(C)=O)CC[C@@H]12 [pD3, (5Z,7E)-3β-hydroxy-9,10-secopregna-5,7,10(19)-trien-20-one]
- proliferation of mouse erytholeukemia cells (Mel) [2]: inhibit proliferation

SMILES: C=C1CC[C@H](O)C/C1=C/C=C1\CCC[C@]2(C)[C@@H](C(C)(O)CC(O)CC(C)C)CC[C@@H]12 (stereo partly drawn) [20,23-dihydroxycholecalciferol, (5Z,7E)-9,10-secocholesta-5,7,10(19)-triene-3β,20,23-triol]
- decrease of colony formation in soft agar ([3]; AbC1, 0.1 nM): 30%
- decrease of colony formation in soft agar ([3]; AbC1, 10 nM): approximately 50%

SMILES: C=C1CC[C@H](O)C/C1=C/C=C1\CCC[C@@]2(C)[C@H]1CC[C@@H]2[C@@](C)(O)CCCC(C)C [20(OH)D3, (5Z,7E)-9,10-secocholesta-5,7,10(19)-triene-3β,20-diol]
- increase of CYP24 mRNA levels (CYP24; 10 nM, 24 h): 1.3 fold
- stimulation of CYP24 mRNA (CYP24; 10^−6, 24 h): ~247 fold
- G0/G1 of viable cells (MD-MBA-231): 47%
- G2/M of viable cells (MD-MBA-231): 10
- S of viable cells (MD-MBA-231): 43%
- Viable Cells (MD-MBA-231): 8
- subG1 (MD-MBA-231; whole cell population): 92
- TGF-b1 induced Col1A1 mRNA (Col1A1 mRNA): suppressed
- kcat (CYP27A1; cyclodextrin): 0.013 ± 0.00033 s⁻¹
- kcat (CYP27A1; phospholipid vesicles): 0.0126 ± 0.001 s⁻¹
